Results: patent publication US20040087633A1, “Methylidene oxazolidinone compound and preparation method thereof” (Korea Institute of Science and Technology, priority 2002, published 2004)
Values after ≈ are worked out from the molar mass of the structure shown.

Key:
Experiment in all cases: Anti-microbial activity test in vitro (agar dilution MIC)
CRSA C1062 = type: cell-based, Staphylococcus aureus; settings: CRSA C1062; Agar Dilution method, Mueller Hinton Agar, 18 hours at 37° C.
Experimental: (§1) Anti-microbial activity test in vitro
(§2) Strains were cultivated for 18 hours at 37° C. in Agar Dilution method using Mueller Hinton Agar, and then plane plates inoculated with the strains by diluting them two times gradually were aligned in a row. Minimum inhibition concentration (MIC, μg/ml) for the representative compounds of the present invention, Linezolid (LZD) and vancomycin (VAN) were decided through visual observation, and the results are shown in the following tables 2 and 3.

MRSA C2207 = type: cell-based, Staphylococcus aureus; settings: MRSA C2207; Agar Dilution method, Mueller Hinton Agar, 18 hours at 37° C.
Experimental: as §1, §2

MSSA C7142 = type: cell-based, Staphylococcus aureus; settings: MSSA C7142; Agar Dilution method, Mueller Hinton Agar, 18 hours at 37° C.
Experimental: as §1, §2

MRSA C5100 = type: cell-based, Staphylococcus aureus; settings: MRSA C5100; Agar Dilution method, Mueller Hinton Agar, 18 hours at 37° C.
Experimental: as §1, §2

MSSA C2214 = type: cell-based, Staphylococcus aureus; settings: MSSA C2214; Agar Dilution method, Mueller Hinton Agar, 18 hours at 37° C.
Experimental: as §1, §2

CRSA C6043 = type: cell-based, Staphylococcus aureus; settings: CRSA C6043; Agar Dilution method, Mueller Hinton Agar, 18 hours at 37° C.
Experimental: as §1, §2

MRSA C6068 = type: cell-based, Staphylococcus aureus; settings: MRSA C6068; Agar Dilution method, Mueller Hinton Agar, 18 hours at 37° C.
Experimental: as §1, §2

VRE C6488 = type: cell-based, Enterococcus faecium; settings: VRE C6488; Agar Dilution method, Mueller Hinton Agar, 18 hours at 37° C.
Experimental: as §1, §2

VRE C6487 = type: cell-based, Enterococcus faecium; settings: VRE C6487; Agar Dilution method, Mueller Hinton Agar, 18 hours at 37° C.
Experimental: as §1, §2

E. faecalis ATCC29212 = type: cell-based; settings: E. faecalis ATCC29212; Agar Dilution method, Mueller Hinton Agar, 18 hours at 37° C.
Experimental: as §1, §2

S. epidermidis C2230 = type: cell-based; settings: S. epidermidis C2230; Agar Dilution method, Mueller Hinton Agar, 18 hours at 37° C.
Experimental: as §1, §2

S. epidermidis C2235 = type: cell-based; settings: S. epidermidis C2235; Agar Dilution method, Mueller Hinton Agar, 18 hours at 37° C.
Experimental: as §1, §2

E. faecium C6301 = type: cell-based; settings: E. faecium C6301; Agar Dilution method, Mueller Hinton Agar, 18 hours at 37° C.
Experimental: as §1, §2

S. epidermidis ATCC12228 = type: cell-based; settings: S. epidermidis ATCC12228; Agar Dilution method, Mueller Hinton Agar, 18 hours at 37° C.
Experimental: as §1, §2

S. pyogenes C6012 = type: cell-based; settings: S. pyogenes C6012; Agar Dilution method, Mueller Hinton Agar, 18 hours at 37° C.
Experimental: as §1, §2

S. pyogenes ATCC8668 = type: cell-based; settings: S. pyogenes ATCC8668; Agar Dilution method, Mueller Hinton Agar, 18 hours at 37° C.
Experimental: as §1, §2

E. faecium C2252 = type: cell-based; settings: E. faecium C2252; Agar Dilution method, Mueller Hinton Agar, 18 hours at 37° C.
Experimental: as §1, §2

S. aureus ATCC 29213 = type: cell-based; settings: Agar Dilution method, Mueller Hinton Agar, 18 hours at 37° C.
Experimental: as §1, §2

S. pyogenes C6003 = type: cell-based; settings: S. pyogenes C6003; Agar Dilution method, Mueller Hinton Agar, 18 hours at 37° C.
Experimental: as §1, §2

E. faecalis C6288 = type: cell-based; settings: E. faecalis C6288; Agar Dilution method, Mueller Hinton Agar, 18 hours at 37° C.
Experimental: as §1, §2

E. faecalis C6291 = type: cell-based; settings: E. faecalis C6291; Agar Dilution method, Mueller Hinton Agar, 18 hours at 37° C.
Experimental: as §1, §2

Compound | Minimum inhibition concentration (MIC) (CRSA C1062) | Minimum inhibition concentration (MIC) (MRSA C2207) | Minimum inhibition concentration (MIC) (MSSA C7142) | Minimum inhibition concentration (MIC) (MRSA C5100) | Minimum inhibition concentration (MIC) (MSSA C2214) | Minimum inhibition concentration (MIC) (CRSA C6043) | Minimum inhibition concentration (MIC) (MRSA C6068) | Minimum inhibition concentration (MIC) (VRE C6488) | Minimum inhibition concentration (MIC) (VRE C6487) | Minimum inhibition concentration (MIC) (E. faecalis ATCC29212) | Minimum inhibition concentration (MIC) (S. epidermidis C2230) | Minimum inhibition concentration (MIC) (S. epidermidis C2235) | Minimum inhibition concentration (MIC) (E. faecium C6301) | Minimum inhibition concentration (MIC) (S. epidermidis ATCC12228) | Minimum inhibition concentration (MIC) (S. pyogenes C6012) | Minimum inhibition concentration (MIC) (S. pyogenes ATCC8668) | Minimum inhibition concentration (MIC) (E. faecium C2252) | Minimum inhibition concentration (MIC) (S. aureus ATCC 29213) | Minimum inhibition concentration (MIC) (S. pyogenes C6003) | Minimum inhibition concentration (MIC) (E. faecalis C6288) | further results
CC(=O)NC[C@H]1CN(c2ccc(N3CCC(=CC(=O)O)CC3)c(F)c2)C(=O)O1 [Compound 14, N-[[(5S)-3-[3-fluoro-4-(4-carboxymethylidenepiperidinyl)-phenyl]-2-oxo-5-oxazolidinyl]methyl]acetamide] | 16 µg/mL (≈ 40.9 µM) | 8 µg/mL (≈ 20.4 µM) | 8 µg/mL (≈ 20.4 µM) | 4 µg/mL (≈ 10.2 µM) | 8 µg/mL (≈ 20.4 µM) | 8 µg/mL (≈ 20.4 µM) | 4 µg/mL (≈ 10.2 µM) | 8 µg/mL (≈ 20.4 µM) | 1 µg/mL (≈ 2.55 µM) | 8 µg/mL (≈ 20.4 µM) | 4 µg/mL (≈ 10.2 µM) | 1 µg/mL (≈ 2.55 µM) | 4 µg/mL (≈ 10.2 µM) | 1 µg/mL (≈ 2.55 µM) | 8 µg/mL (≈ 20.4 µM) | 4 µg/mL (≈ 10.2 µM) | 8 µg/mL (≈ 20.4 µM) | 8 µg/mL (≈ 20.4 µM) | 2 µg/mL (≈ 5.11 µM) | 4 µg/mL (≈ 10.2 µM) | Minimum inhibition concentration (MIC) (E. faecalis C6291): 8 µg/mL (≈ 20.4 µM)
CCOC(=O)C(Cl)=C1CCN(c2ccc(N3C[C@H](CNC(C)=O)OC3=O)cc2F)CC1 [Compound 15, N-[[(5S)-3-[3-fluoro-4-((4-(1-ethoxycarbonyl-1-chloro)-methylidene)piperidinyl)phenyl]-2-oxo-5-oxazolidinyl]methyl]acetamide] | 16 µg/mL (≈ 35.3 µM) | 16 µg/mL (≈ 35.3 µM) | 8 µg/mL (≈ 17.6 µM) | 16 µg/mL (≈ 35.3 µM) | 8 µg/mL (≈ 17.6 µM) | 16 µg/mL (≈ 35.3 µM) | 16 µg/mL (≈ 35.3 µM) | 4 µg/mL (≈ 8.81 µM) | 2 µg/mL (≈ 4.41 µM) | 8 µg/mL (≈ 17.6 µM) | 4 µg/mL (≈ 8.81 µM) | 4 µg/mL (≈ 8.81 µM) | 2 µg/mL (≈ 4.41 µM) | 2 µg/mL (≈ 4.41 µM) | 8 µg/mL (≈ 17.6 µM) | 2 µg/mL (≈ 4.41 µM) | 4 µg/mL (≈ 8.81 µM) | 32 µg/mL (≈ 70.5 µM) | 2 µg/mL (≈ 4.41 µM) | 8 µg/mL (≈ 17.6 µM) | Minimum inhibition concentration (MIC) (E. faecalis C6291): 4 µg/mL (≈ 8.81 µM)
CC(=O)NC[C@H]1CN(c2ccc(N3CCC(=C(C)C#N)CC3)c(F)c2)C(=O)O1 [Compound 16, N-[[(5S)-3-[3-fluoro-4-(4-(1-cyanoethylidene)piperidinyl)-phenyl]-2-oxo-5-oxazolidinyl]methyl]acetamide] | 2 µg/mL (≈ 5.18 µM) | 2 µg/mL (≈ 5.18 µM) | 2 µg/mL (≈ 5.18 µM) | 2 µg/mL (≈ 5.18 µM) | 2 µg/mL (≈ 5.18 µM) | 2 µg/mL (≈ 5.18 µM) | 2 µg/mL (≈ 5.18 µM) | 1 µg/mL (≈ 2.59 µM) | 0.5 µg/mL (≈ 1.29 µM) | 2 µg/mL (≈ 5.18 µM) | 2 µg/mL (≈ 5.18 µM) | 2 µg/mL (≈ 5.18 µM) | 2 µg/mL (≈ 5.18 µM) | 0.5 µg/mL (≈ 1.29 µM) | 2 µg/mL (≈ 5.18 µM) | 2 µg/mL (≈ 5.18 µM) | 2 µg/mL (≈ 5.18 µM) | 2 µg/mL (≈ 5.18 µM) | 0.5 µg/mL (≈ 1.29 µM) | 2 µg/mL (≈ 5.18 µM) | Minimum inhibition concentration (MIC) (E. faecalis C6291): 2 µg/mL (≈ 5.18 µM)
